This is an account of results in patent US4810636A, “Chromogenic acridinone enzyme substrates” (Miles Inc., priority 1987, dated 1989).

What is called Km is the substrate concentration at which the rate is half of its maximum.

Data set [1] is described as follows: Phenolic pKa of the chromogen. Type of data set: physicochemical. The text has this:
(§1) (C), 2462 (1970), where R and R' in the general formula (2) are methyl.

The nature of data set [2]: Solubility and stability in aqueous buffered / basic solution. It is filed as physicochemical. The text has this: According to a preferred embodiment of the present invention, chromogenic enzyme substrate compounds of the general formula (8), where Y is a radical of an enzyme-specific sugar moiety Y--OH, preferably β-D-galactose or β-D-glucose, and R and R' are methyl, can be prepared by reacting the dimethyl chromogen (20) with a 1-halogeno-derivative of the enzyme-specific moiety, preferably a 1-bromo-derivative thereof, substituted at the hydroxy-positions thereof with protecting groups, preferably acetate protecting groups, to result in per-O-substituted derivatives which can be hydrolyzed to remove such protecting groups to obtain the desired chromogenic enzyme substrate compound. For example, the β-D-galactoside of (20), the chromogenic enzyme substrate (8) where Y is the radical of β-D-galactose and R and R' are methyl, can be prepared for use in the determination of β-D-galactosidase. In particular, the dimethyl acridinone chromogen (20), where R and R' are methyl in the general formula (2), is reacted with acetobromogalactose and silver oxide in ethyl acetate/quinoline to prepare the 7-(tetra-O-acetyl-β-D-galactopyranosyloxy)-9,9-dimethyl-9H-acridin-2-one (31) of the formula: [drawing 13] […] The resulting galactoside (32) has an absorbance (λmax) of 438 nm (yellow), an extinction coefficient of 27,400, and is soluble in a phosphate buffered solution (pH 7.4). […]

Data set [3] is described as follows: Visible absorbance (λmax, extinction coefficient) of substrate and chromogen. Conditions: for absorbance (λmax): uncleaved substrate or protonated chromogen. Type of data set: physicochemical.
From the text: According to a preferred embodiment of the present invention, chromogenic enzyme substrate compounds of the general formula (8), where Y is a radical of an enzyme-specific sugar moiety Y--OH, preferably β-D-galactose or β-D-glucose, and R and R' are methyl, can be prepared by reacting the dimethyl chromogen (20) with a 1-halogeno-derivative of the enzyme-specific moiety, preferably a 1-bromo-derivative thereof, substituted at the hydroxy-positions thereof with protecting groups, preferably acetate protecting groups, to result in per-O-substituted derivatives which can be hydrolyzed to remove such protecting groups to obtain the desired chromogenic enzyme substrate compound. For example, the β-D-galactoside of (20), the chromogenic enzyme substrate (8) where Y is the radical of β-D-galactose and R and R' are methyl, can be prepared for use in the determination of β-D-galactosidase. In particular, the dimethyl acridinone chromogen (20), where R and R' are methyl in the general formula (2), is reacted with acetobromogalactose and silver oxide in ethyl acetate/quinoline to prepare the 7-(tetra-O-acetyl-β-D-galactopyranosyloxy)-9,9-dimethyl-9H-acridin-2-one (31) of the formula: [drawing 13] The acetate protecting groups of (31) are then hydrolyzed with sodium methoxide in methanol to result in the desired 7-β-D-galactopyranosyloxy-9,9-dimethyl-9H-acridin-2-one (32) of the present invention of the formula: [drawing 14] The resulting galactoside (32) has an absorbance (λmax) of 438 nm (yellow), an extinction coefficient of 27,400, and is soluble in a phosphate buffered solution (pH 7.4).
as §1

For data set [4], the target named is T1, β-D-galactosidase (Escherichia coli, UniProt P00722). As to the kind of experiment: Hydrolysis of the galactoside substrate by β-D-galactosidase (Kcat, Km). It is filed as biochemical. Conditions: 50 mM phosphate buffered solution (pH 7.4) containing 5 mM MgCl2. The source says:
According to a preferred embodiment of the present invention, chromogenic enzyme substrate compounds of the general formula (8), where Y is a radical of an enzyme-specific sugar moiety Y--OH, preferably β-D-galactose or β-D-glucose, and R and R' are methyl, can be prepared by reacting the dimethyl chromogen (20) with a 1-halogeno-derivative of the enzyme-specific moiety, preferably a 1-bromo-derivative thereof, substituted at the hydroxy-positions thereof with protecting groups, preferably acetate protecting groups, to result in per-O-substituted derivatives which can be hydrolyzed to remove such protecting groups to obtain the desired chromogenic enzyme substrate compound. For example, the β-D-galactoside of (20), the chromogenic enzyme substrate (8) where Y is the radical of β-D-galactose and R and R' are methyl, can be prepared for use in the determination of β-D-galactosidase. In particular, the dimethyl acridinone chromogen (20), where R and R' are methyl in the general formula (2), is reacted with acetobromogalactose and silver oxide in ethyl acetate/quinoline to prepare the 7-(tetra-O-acetyl-β-D-galactopyranosyloxy)-9,9-dimethyl-9H-acridin-2-one (31) of the formula: [drawing 13] […] The resulting galactoside (32) has an absorbance (λmax) of 438 nm (yellow), an extinction coefficient of 27,400, and is soluble in a phosphate buffered solution (pH 7.4).

Data set [5] addresses T1, β-D-galactosidase. As to the kind of experiment: Analytical test device for β-D-galactosidase, reflectance dose response. It is filed as biochemical. Conditions: 0.02-0.20 ng/ml β-D-galactosidase, reflectance at 630 nm after 50-70 seconds. The protocol: A 2 inch wide×2 inch long sheet of Whatman 54 filter paper (Whatman, Inc., Clifton, N.J., U.S.A.) was immersed in an aqueous solution comprising 0.3M bicine buffer (pH 7.9) and 4.0 mM MgCl2 and air-dried overnight at room temperature. The filter paper was then immersed in a methanol solution containing 15 mM of the substrate product (32) from Example 3 and air-dried for one hour at room temperature to obtain a filter paper which was yellow in color.
A 0.5 cm wide×1.0 cm long segment of the above-described impregnated yellow filter paper was mounted onto and along the edge of one surface of a 0.5 cm×8.125 cm polystyrene support (Tricite®, Dow Chemical Co., Midland, Mich., U.S.A.) previously laminated with a 2 mm strip of Double Stick® double-faced adhesive tape (3M Company, St. Paul, Minn., U.S.A.) for use as an analytical test device for the detection of β-D-galactosidase from a liquid test sample.
Ten analytical test devices were prepared according to Example 4 and employed to determine the dose response of the substrate product compound (32) of the present invention to β-D-galactosidase.
[…] aqueous test sample solutions containing β-D-galactosidase concentrations of 0.02 ng/ml, 0.04 ng/ml, 0.06 ng/ml, 0.08 ng/ml, 0.12 ng/ml, 0.14 ng/ml, 0.16 ng/ml, 0.18 ng/ml and 0.20 ng/ml were prepared and an analytical test device dipped into each.

T1 sequence (P00722 2-1024): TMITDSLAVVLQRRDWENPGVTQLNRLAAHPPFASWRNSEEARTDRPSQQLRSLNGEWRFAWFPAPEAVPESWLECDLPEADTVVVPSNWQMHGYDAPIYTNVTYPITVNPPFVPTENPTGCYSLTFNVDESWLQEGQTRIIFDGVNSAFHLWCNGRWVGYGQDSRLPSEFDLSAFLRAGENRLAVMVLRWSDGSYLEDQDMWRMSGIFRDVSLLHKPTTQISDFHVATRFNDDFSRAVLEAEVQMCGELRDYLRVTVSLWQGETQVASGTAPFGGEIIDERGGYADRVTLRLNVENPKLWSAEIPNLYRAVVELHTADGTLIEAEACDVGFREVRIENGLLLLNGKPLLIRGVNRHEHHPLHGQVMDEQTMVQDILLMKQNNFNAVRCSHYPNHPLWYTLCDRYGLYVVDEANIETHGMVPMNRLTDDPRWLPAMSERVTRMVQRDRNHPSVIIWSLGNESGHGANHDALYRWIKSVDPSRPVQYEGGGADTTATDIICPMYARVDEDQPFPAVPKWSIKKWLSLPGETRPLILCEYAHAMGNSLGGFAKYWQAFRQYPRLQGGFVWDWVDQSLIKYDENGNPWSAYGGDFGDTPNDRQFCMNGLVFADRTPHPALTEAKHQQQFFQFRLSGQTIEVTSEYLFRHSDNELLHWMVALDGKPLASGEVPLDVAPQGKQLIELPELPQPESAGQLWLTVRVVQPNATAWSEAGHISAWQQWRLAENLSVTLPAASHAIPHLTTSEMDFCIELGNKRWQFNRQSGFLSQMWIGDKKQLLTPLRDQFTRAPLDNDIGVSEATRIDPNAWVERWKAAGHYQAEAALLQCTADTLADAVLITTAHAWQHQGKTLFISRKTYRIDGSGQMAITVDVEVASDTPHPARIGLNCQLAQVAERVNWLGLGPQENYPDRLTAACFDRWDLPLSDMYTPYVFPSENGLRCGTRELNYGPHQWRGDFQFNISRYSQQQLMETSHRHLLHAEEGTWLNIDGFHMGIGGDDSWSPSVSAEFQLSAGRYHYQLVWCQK

As to `CC1(C)C2=CC(=O)C=CC2=Nc2ccc(O)cc21` [Compound 20, 7-hydroxy-9,9-dimethyl-9H-acridin-2-one, reference compound], the “phenolic pKa” value in data set [1] was 7.1. Besides, the solubility and stability entry in data set [2] (aqueous, basic solutions) is “soluble and stable”. In data set [3], the “shift in the absorbance maximum on deprotonation” value is given as 176 nm and the “absorbance (λmax)” value worked out at 459 nm. In addition, in data set [3] (deprotonated chromogen), the “absorbance of the deprotonated anion” value came to 635 nm. For the same compound, in data set [3] (pH=10, in M-1 cm-1 (unit assumed)), the “extinction coefficient of the anion” value is given as 53,100.
Consider `CC1(C)C2=CC(=O)C=CC2=Nc2ccc(O[C@@H]3O[C@H](CO)[C@H](O)[C@H](O)[C@H]3O)cc21` [Compound 32, 7-β-D-galactopyranosyloxy-9,9-dimethyl-9H-acridin-2-one], for which, in data set [4], the “rate at which the enzyme cleaves the substrate (Kcat)” value is reported as 1.32×10^4 mol. min.^-1 /mol. active site. Moreover, the Km in data set [4] (read-out: binding constant (Km)) came out at 170 µM. Moreover, the solubility entry in data set [2] (phosphate buffered solution (pH 7.4)) is reported as “soluble”. In data set [5], the “dose response of reflectance to β-D-galactosidase” value is “linear dose response”. In data set [3], the “change in absorbance between substrate and liberated chromogen anion” value was 196 nm; the “absorbance (λmax)” value stood at 438 nm. For the same compound, the “absorbance of the liberated chromogen anion” value in data set [3] (after hydrolysis by β-D-galactosidase, phosphate buffered solution) was 634 nm. The extinction coefficient in data set [3] (uncleaved substrate, at 438 nm, in M-1 cm-1 (unit assumed)) was 27,400.
